According to publication PMC6430500, “3-Fluoro-4-hydroxyprolines: Synthesis, Conformational Analysis, and Stereoselective Recognition by the VHL E3 Ubiquitin Ligase for Targeted Protein Degradation” (Journal of the American Chemical Society, 2018):

Columns and labels:
Brd2 = molecular target: T1, Brd2 (Homo sapiens, UniProt P25440); experiment: BET protein degradation in HeLa cells, Western blot; format: cell-based; conditions: 24 h
T1 construct: endogenous in cells; host or cells: HeLa
Protocol: (§1) HeLa and A549 cells were kept in DMEM (Gibco) supplemented with 10%(v/v) FBS (Gibco), 2 mM L-glutamine (Gibco), penicillin (100 units /mL) and streptomycin (100 µ g/mL) (Gibco). MV4;11 cells were kept in RPMI 1640 supplemented with 10%(v/v) FBS (Gibco), 2 mM L-glutamine (Gibco), penicillin (100 units /mL) and streptomycin (100 µg/mL) (Gibco). Cells were kept at 37 °C, 5% CO2.
(§2) Testing compounds in cells
(§3) HeLa cells (3 x 105) were seeded onto each well on a six-well plate 24 h before treatment with test compounds. To treat the cells with the test compounds, medium was replaced with fresh medium containing specified concentration of test compounds for specified time. At the end of treatment, cells were washed with PBS and then were lysed by applying RIPA buffer (Sigma, R0278) supplemented with Protease inhibitor (Roche, # 04693159001) and Benzonase (Sigma, E1014). Lysate was clarified by centrifugation (20,000 x g, 10 min, 4 °C). Supernatant was collected and protein concentration of was determined by BCA assay. The rest of the clarified lysate was kept at -80° C before further […]
(§4) Protein on gel was transferred to nitrocellulose membrane using Bio-Rad Transblot system according to manufacturer guidelines. Blots were probed with anti- Brd4 (AbCam, ab128874), anti-Brd3 (AbCam, ab50818), anti- Brd2 (AbCam, ab139690) and anti-β-actin (Cell Signaling, no. 4970) antibodies. Blots were developed with secondary anti-mouse IgG (Licor, 926-32210) or anti-rabbit IgG (Licor, 926- 32213) antibodies from Licor and bands visualized using Bio-Rad ChemiDoc MP […]
(§5) Western Blot Quantification#
(§6) Image processing and band intensity quantification were performed using Bio-Rad Image Lab software version 6.0.0. Reported band intensities are normalized to loading control, i.e., β-actin or tubulin for total lysates.

Brd3 = molecular target: T2, Brd3 (Homo sapiens, UniProt Q15059); experiment: as above; format: cell-based; conditions: 24 h
T2 construct: endogenous in cells; host or cells: HeLa
T2 sequence (Q15059 whole entry): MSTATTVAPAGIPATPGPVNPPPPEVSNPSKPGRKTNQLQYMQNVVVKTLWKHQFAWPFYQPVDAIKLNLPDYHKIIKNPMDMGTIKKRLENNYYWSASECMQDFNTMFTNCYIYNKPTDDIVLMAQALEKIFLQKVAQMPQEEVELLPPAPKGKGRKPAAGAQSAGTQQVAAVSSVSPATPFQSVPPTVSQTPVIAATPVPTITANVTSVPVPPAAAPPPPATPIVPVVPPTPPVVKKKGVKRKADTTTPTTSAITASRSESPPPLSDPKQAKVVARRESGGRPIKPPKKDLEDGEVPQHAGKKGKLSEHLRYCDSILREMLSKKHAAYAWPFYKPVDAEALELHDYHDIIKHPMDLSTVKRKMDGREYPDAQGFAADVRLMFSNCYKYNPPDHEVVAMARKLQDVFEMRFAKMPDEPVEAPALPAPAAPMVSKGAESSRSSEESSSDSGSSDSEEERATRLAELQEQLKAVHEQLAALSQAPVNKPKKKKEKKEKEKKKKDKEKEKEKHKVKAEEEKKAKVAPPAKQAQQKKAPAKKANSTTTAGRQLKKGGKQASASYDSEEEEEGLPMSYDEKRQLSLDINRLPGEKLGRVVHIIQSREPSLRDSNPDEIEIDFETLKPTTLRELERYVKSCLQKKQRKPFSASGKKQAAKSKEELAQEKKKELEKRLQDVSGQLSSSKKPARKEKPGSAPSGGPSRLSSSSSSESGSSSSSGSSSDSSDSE
Protocol: as §1, §2, §3, §4, §5, §6

T1 sequence (P25440 whole entry): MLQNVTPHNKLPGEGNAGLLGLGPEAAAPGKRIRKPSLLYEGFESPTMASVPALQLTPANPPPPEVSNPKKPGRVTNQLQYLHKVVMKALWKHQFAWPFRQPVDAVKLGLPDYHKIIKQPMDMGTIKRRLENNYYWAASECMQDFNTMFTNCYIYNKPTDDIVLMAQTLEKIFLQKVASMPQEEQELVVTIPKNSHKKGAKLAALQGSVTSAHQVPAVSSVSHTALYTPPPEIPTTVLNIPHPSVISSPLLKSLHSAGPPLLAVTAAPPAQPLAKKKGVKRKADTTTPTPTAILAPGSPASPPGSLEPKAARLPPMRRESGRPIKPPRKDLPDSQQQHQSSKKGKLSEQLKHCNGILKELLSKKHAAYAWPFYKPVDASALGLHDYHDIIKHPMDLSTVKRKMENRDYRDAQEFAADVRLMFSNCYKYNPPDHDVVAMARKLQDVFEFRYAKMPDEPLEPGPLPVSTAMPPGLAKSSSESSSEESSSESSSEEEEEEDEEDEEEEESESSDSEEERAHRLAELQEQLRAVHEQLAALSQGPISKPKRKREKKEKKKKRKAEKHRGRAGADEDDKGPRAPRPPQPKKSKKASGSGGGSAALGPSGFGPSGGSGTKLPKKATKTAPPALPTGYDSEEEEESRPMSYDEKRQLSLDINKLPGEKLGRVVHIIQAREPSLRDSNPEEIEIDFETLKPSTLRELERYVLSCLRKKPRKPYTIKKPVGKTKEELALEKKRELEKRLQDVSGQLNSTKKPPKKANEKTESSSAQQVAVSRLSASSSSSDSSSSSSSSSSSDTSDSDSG

| DC50 (Brd2) [nM] | DC50 (Brd3) [nM] | Compound |
| --- | --- | --- |
| ~10 | ~10 | Cc1ncsc1-c1ccc(CNC(=O)[C@@H]2[C@@H](F)[C@@H](O)CN2C(=O)[C@@H](NC(=O)COCCOCCOCCNC(=O)C[C@@H]2N=C(c3ccc(Cl)cc3)c3c(sc(C)c3C)-n3c(C)nnc32)C(C)(C)C)cc1 [15a] |
| ~3000 | ~3000 | Cc1ncsc1-c1ccc(CNC(=O)[C@@H]2[C@H](F)[C@@H](O)CN2C(=O)[C@@H](NC(=O)COCCOCCOCCNC(=O)C[C@@H]2N=C(c3ccc(Cl)cc3)c3c(sc(C)c3C)-n3c(C)nnc32)C(C)(C)C)cc1 [15b] |
